Data: publication PMC8161026, “Synthesis and Anticancer Activity Evaluation of 5-[2-Chloro-3-(4-nitrophenyl)-2-propenylidene]-4-thiazolidinones” (Molecules, 2021)

How the values were obtained:
HOP-92 = assay: NCI DTP 60 cell line screen, SRB
HOP-62 = HOP-62 (Non-Small Cell Lung Cancer), 48 h, SRB
T-47D = T-47D (Breast Cancer), 48 h, SRB
EKVX = assay: cells; conditions: Homo sapiens, 48 h
HCT-116 [1] = conditions: HCT-116 (Colon Cancer), 48 h, SRB
786-0 = 786-0 (Renal Cancer), 48 h, SRB
SNB-75 = SNB-75 (CNS Cancer), 48 h, SRB
U251 = assay: cells; conditions: Homo sapiens, U-251, 48 h
NCI-H23 = assay: cells; conditions: Homo sapiens, NCI-H23, 48 h
SNB-19 = assay: NCI DTP 60 cell line screen, SRB
KM12 = assay: cells; conditions: Homo sapiens, KM12, 48 h
HCT-116 [2] = assay: cells; conditions: Homo sapiens, HCT-116, 48 h
[3] = system: Non-Small Cell Lung Cancer subpanel; assay: cells
Procedure: (§1) At the first stage of biological activity study, the antitumor activity screening of the selected compounds 2b, 2c, 2f, 2h, and 2j was performed according to the NCI DTP (USA) standard protocol at the concentrations ranging from 10^−4 to 10^−8 M toward 60 tumor cell lines. The percentage of growth was evaluated spectrophotometrically versus controls not treated with test agents after 48 h exposure and using SRB protein assay to estimate cell viability or growth. Dose–response parameters were calculated for each cell line: GI50—molar concentration of the compound that inhibits 50% net cell growth; TGI—molar concentration of the compound leading to the total inhibition; and LC50—molar concentration of the compound leading to 50% net cell death. Furthermore, mean graph midpoints (MG_MID) were calculated for each of the parameters, giving an average activity parameter over all cell lines for the tested compound. For the MG_MID calculation, insensitive cell lines were included with the highest concentration tested.
(§2) The selectivity index (SI) obtained by dividing the full panel MG-MID (mM) of the tested compound by their individual subpanel MG-MID (mM) was considered as a measure of selectivity of anticancer activity (Table 3).
(§3) Primary anticancer assay was performed on a panel of approximately sixty human tumor cell lines derived from nine neoplastic diseases, in accordance with the protocol of the Drug Evaluation Branch, National Cancer Institute, Bethesda. Tested compounds were added to the culture at a single concentration (10^−5 M) and the cultures were incubated for 48 h. End point determinations were made with a protein binding dye, sulforhodamine B (SRB). […] The percentage growth was evaluated spectrophotometrically versus controls not treated with test agents.
(§4) Dose–response parameters (GI50, TGI, LC50) were calculated for each compound. […] The drug concentration resulting in total growth inhibition (TGI) was calculated from Ti = Tz. The LC50 (concentration of drug resulting in a 50% reduction in the measured protein at the end of the drug treatment as compared to that at the beginning) indicating a net loss of cells following treatment was calculated from [(Ti − Tz)/Tz] × 100 = −50 (2). Values were calculated for each of these parameters if the level of activity was reached; however, if the effect was not reached or was excessive, the value for that parameter was expressed as more or less than the maximum or minimum concentration tested.

Colon Cancer subpanel = assay: cells
Procedure: as §1, §2, §3, §4

Leukemia subpanel = assay: cells
Procedure: as §1, §2, §3, §4

Renal Cancer subpanel = assay: cells
Procedure: as §1, §2, §3, §4

Ovarian Cancer subpanel = assay: cells
Procedure: as §1, §2, §3, §4

Prostate Cancer subpanel = assay: cells
Procedure: as §1, §2, §3, §4

CNS Cancer subpanel = assay: cells
Procedure: as §1, §2, §3, §4

Breast Cancer subpanel = assay: cells
Procedure: as §1, §2, §3, §4

Melanoma subpanel = assay: cells
Procedure: as §1, §2, §3, §4

[4] = Homo sapiens, read-out: MG_MID, GI50
[5] = Homo sapiens, read-out: MG_MID, LC50
[6] = full panel MG_MID / Non-Small Cell Lung Cancer subpanel MG_MID
[7] = full panel MG_MID / Colon Cancer subpanel MG_MID
[8] = full panel MG_MID / Leukemia subpanel MG_MID
[9] = full panel MG_MID / Renal Cancer subpanel MG_MID
[10] = full panel MG_MID / Ovarian Cancer subpanel MG_MID
[11] = full panel MG_MID / Prostate Cancer subpanel MG_MID
[12] = full panel MG_MID / CNS Cancer subpanel MG_MID
[13] = full panel MG_MID / Breast Cancer subpanel MG_MID
[14] = full panel MG_MID / Melanoma subpanel MG_MID

With `O=C1/C(=C/C(Cl)=C/c2ccc([N+](=O)[O-])cc2)SC(=S)N1c1ccc(O)cc1` [Compound 2f, 5-[(Z,2Z)-2-Chloro-3-(4-nitrophenyl)-2-propenylidene]-3-(4-hydroxyphenyl)-2-thioxo-4-thiazolidinone] the TGI (HOP-92; HOP-92 (Non-Small Cell Lung Cancer), 48 h, SRB) was 39.4 µM, the GI50 (HOP-92; Homo sapiens, HOP-92, 48 h) was 8.53 µM and the CC50 (HOP-92; Homo sapiens, HOP-92, 48 h, read-out: LC50) was > 100 µM. It also gave a TGI (HOP-62) of 5.22 µM, a TGI (T-47D) of 7.71 µM and a GI50 (EKVX) of 2.37 µM. For the same molecule, the CC50 (EKVX; read-out: LC50) was > 100 µM, the TGI (HCT-116 [1]) was 2.96 µM and the TGI (786-0) was 3.83 µM. For the same molecule, the TGI (SNB-75) was > 100 µM, the GI50 (U251) was 0.368 µM and the CC50 (U251; read-out: LC50) was 38.9 µM. It also gave a GI50 (NCI-H23) of 1.48 µM, a CC50 (NCI-H23; read-out: LC50) of 6.52 µM and a GI50 (SNB-19; Homo sapiens, SNB-19, 48 h) of 10 µM. It also gave a CC50 (SNB-19; Homo sapiens, SNB-19, 48 h, read-out: LC50) of 97.5 µM, a TGI (SNB-19; SNB-19 (CNS Cancer), 48 h, SRB) of 32.0 µM and a GI50 (KM12) of 2.85 µM. The CC50 (KM12; read-out: LC50) was > 100 µM, the GI50 (HCT-116 [2]) was 1.27 µM and the CC50 (HCT-116 [2]; read-out: LC50) was 6.92 µM. For the same molecule, the GI50 [3, 4] was 2.93 µM, the CC50 [3, 5] was 74 µM and the “MG_MID, TGI” value ([3]; Non-Small Cell Lung Cancer panel mean) was 26.6 µM. The “SI (selectivity index), GI50” value [3, 6] was 0.96, the “SI (selectivity index), LC50” value [3, 6] was 1.09 and the “SI (selectivity index), TGI” value [3, 6] was 1.21. For the same molecule, the “MG_MID, TGI” value (Colon Cancer subpanel; Colon Cancer panel mean) was 67.4 µM, the GI50 (Colon Cancer subpanel; [4]) was 1.84 µM and the CC50 (Colon Cancer subpanel; [5]) was 84.5 µM. The “SI (selectivity index), GI50” value (Colon Cancer subpanel; [7]) was 1.52, the “SI (selectivity index), LC50” value (Colon Cancer subpanel; [7]) was 0.96 and the “SI (selectivity index), TGI” value (Colon Cancer subpanel; [7]) was 0.48. For the same molecule, the “TI (Therapeutic Index)” value (Leukemia subpanel; GI50 (normal blood lymphocyte)/GI50 (Leukemia Panel)) was >353.36, the GI50 (Leukemia subpanel; [4]) was 0.283 µM and the CC50 (Leukemia subpanel; [5]) was > 100 µM. The “MG_MID, TGI” value (Leukemia subpanel; Leukemia panel mean) was 41.0 µM, the “SI (selectivity index), GI50” value (Leukemia subpanel; [8]) was 9.89 and the “SI (selectivity index), LC50” value (Leukemia subpanel; [8]) was <0.81. For the same molecule, the “SI (selectivity index), TGI” value (Leukemia subpanel; [8]) was 0.78, the GI50 (Renal Cancer subpanel; [4]) was 2.85 µM and the CC50 (Renal Cancer subpanel; [5]) was 69.1 µM. For the same molecule, the “MG_MID, TGI” value (Renal Cancer subpanel; Renal Cancer panel mean) was 24.1 µM, the “SI (selectivity index), GI50” value (Renal Cancer subpanel; [9]) was 0.98 and the “SI (selectivity index), LC50” value (Renal Cancer subpanel; [9]) was 1.17. For the same molecule, the “SI (selectivity index), TGI” value (Renal Cancer subpanel; [9]) was 1.34, the GI50 (Ovarian Cancer subpanel; [4]) was 3.32 µM and the CC50 (Ovarian Cancer subpanel; [5]) was > 100 µM. The “MG_MID, TGI” value (Ovarian Cancer subpanel; Ovarian Cancer panel mean) was 42.5 µM, the “SI (selectivity index), GI50” value (Ovarian Cancer subpanel; [10]) was 0.84 and the “SI (selectivity index), LC50” value (Ovarian Cancer subpanel; [10]) was <0.81. The “SI (selectivity index), TGI” value (Ovarian Cancer subpanel; [10]) was 0.76, the GI50 (Prostate Cancer subpanel; [4]) was 1.48 µM and the CC50 (Prostate Cancer subpanel; [5]) was 75.1 µM. For the same molecule, the “SI (selectivity index), GI50” value (Prostate Cancer subpanel; [11]) was 1.89, the “SI (selectivity index), LC50” value (Prostate Cancer subpanel; [11]) was 1.08 and the “SI (selectivity index), TGI” value (Prostate Cancer subpanel; [11]) was 0.71. For the same molecule, the “MG_MID, TGI” value (CNS Cancer subpanel; CNS Cancer panel mean) was 30.6 µM, the GI50 (CNS Cancer subpanel; [4]) was 6.72 µM and the CC50 (CNS Cancer subpanel; [5]) was 77.4 µM. The “SI (selectivity index), GI50” value (CNS Cancer subpanel; [12]) was 0.42, the “SI (selectivity index), LC50” value (CNS Cancer subpanel; [12]) was 1.04 and the “SI (selectivity index), TGI” value (CNS Cancer subpanel; [12]) was 1.05. The “MG_MID, TGI” value (Breast Cancer subpanel; Breast Cancer panel mean) was 11.6 µM, the GI50 (Breast Cancer subpanel; [4]) was 1.89 µM and the CC50 (Breast Cancer subpanel; [5]) was 98.7 µM. For the same molecule, the “SI (selectivity index), GI50” value (Breast Cancer subpanel; [13]) was 1.48, the “SI (selectivity index), LC50” value (Breast Cancer subpanel; [13]) was 0.82 and the “SI (selectivity index), TGI” value (Breast Cancer subpanel; [13]) was 2.78. For the same molecule, the GI50 (Melanoma subpanel; [4]) was 2.63 µM, the CC50 (Melanoma subpanel; [5]) was 52.3 µM and the “MG_MID, TGI” value (Melanoma subpanel; Melanoma panel mean) was 14.4 µM. The “SI (selectivity index), GI50” value (Melanoma subpanel; [14]) was 1.06, the “SI (selectivity index), LC50” value (Melanoma subpanel; [14]) was 1.54 and the “SI (selectivity index), TGI” value (Melanoma subpanel; [14]) was 2.23.
